Results from patent publication US7276533B2, “Compositions useful for the treatment of pathologies responding to the activation of PPAR-gamma receptor” (Sigma-Tau Industrie Farmaceutiche Riunite S.p.A., priority 2001, dated 2007).

Tests used:
[1] = test system: NB4 cells (human promyelocitic leukemia); assay: Differentiation of NB4 cells into granulocytes, NBT dye reduction, spectrophotometric assay at 540 nm; assay type: cell-based; settings: 2-3 days, FIG. 2
Description: The pro-differentiative activity of the spirolaxine (ST 1397) and the ATRA, both alone and in association, was assessed in this experimental model.
NB4 cells were grown in 25 cm^2 flasks at a density of approx 100.000 cells/ml in 5 ml of RPMI 1640 culture with 10% fetal calf serum (FCS). After one day, the cells were treated with ATRA at a concentration of 10^−7 M, or with ST 1397 at doses of 0,1, 0,5 and 1 μM, or with equivalent volumes of the two compounds in association. Then, the cells were put into the incubator for 2-3 days, without replacing the culture medium.
At the end of the second or third day of treatment, the differentiation of the cells into granulocytes was measured by the NBT dye reduction and the spectrophotomectric assay of the samples.
The retinoic acid was dissolved in the culture medium with a solution of DMSO 1 mM. Control cultures were treated with equivalent volumes of DMSO, since this compound (DMSO) can be differentiating in certain experimental conditions.
To measure the differentiative effect, 500.000 cells have been gathered from each sample, centrifuged and re-suspended in 1 ml of RPMI 1640 culture with 10% serum, 1 mg/ml of nitroblue tetrazolium (NBT) and 100 ng of PMA. The re-suspended cells were incubated at 37° C. for 20-60 min. […]
The samples were sonicated to complete lysis and then read with a spectrophotometer at a wave length of 540 nm.

PPARγ receptor = target: T1, PPARγ receptor (Homo sapiens, UniProt P37231); assay: Activation of PPARγ: cellular transfection with PPAR-γ plasmid and TK-PPAR-Reluc luciferase reporter vector; settings: NIH-3T3 murine fibroblasts, 24 hour-treatment, spirolaxine 40 nM, FIG. 1
T1 sequence (P37231 1-505): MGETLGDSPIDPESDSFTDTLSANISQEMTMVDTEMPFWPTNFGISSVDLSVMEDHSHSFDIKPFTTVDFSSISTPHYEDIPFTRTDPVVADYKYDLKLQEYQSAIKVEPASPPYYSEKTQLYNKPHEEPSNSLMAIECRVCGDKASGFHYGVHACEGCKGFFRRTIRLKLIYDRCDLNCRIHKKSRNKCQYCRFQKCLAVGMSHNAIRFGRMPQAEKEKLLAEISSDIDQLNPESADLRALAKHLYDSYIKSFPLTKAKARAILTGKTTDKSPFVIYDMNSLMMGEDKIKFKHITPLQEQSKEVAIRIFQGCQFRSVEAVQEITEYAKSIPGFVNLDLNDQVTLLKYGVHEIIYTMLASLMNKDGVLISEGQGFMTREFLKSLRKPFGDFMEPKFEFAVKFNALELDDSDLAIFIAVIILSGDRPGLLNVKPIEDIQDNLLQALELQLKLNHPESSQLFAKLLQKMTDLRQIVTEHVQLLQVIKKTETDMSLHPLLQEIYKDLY
Description: The activation of the expression of the luciferase was put into evidence by transfecting the NIH-3T3 murine fibroblasts with the PPAR-γ plasmid and the TK-PPAR-Reluc reporter vector; the luciferase activity was measured after 24 hour-treatment with the spirolaxine at a concentration of 40 nM.

Compound: CC1=C(/C=C/C(C)=C/C=C/C(C)=C/C(=O)O)C(C)(C)CCC1 [ATRA, all-trans retinoic acid, reference compound]
- differentiation in NB4 cells (NBT reduction) ([1]; ATRA alone at 10^−7 M): differentiative effect was already well known

Compound: COc1cc(O)cc2c1C(=O)OC2CCCCCC1CCCC2(CCC(C)O2)O1 (stereo not drawn) [spirolaxine]
- differentiation in NB4 cells (NBT reduction) ([1]; ST 1397 alone at 0,1, 0,5 and 1 μM): does not induce differentiation
- luciferase activity mediated by the TK-PPAR-Reluc reporter vector (index of activation of the receptor) versus control (PPARγ receptor): seven times higher than the control
